From patent US9528090B2, “Differentiation of human embryonic stem cells” (Janssen Biotech, Inc., priority 2010, dated 2016)

Columns and labels:
[1] = tested on: human embryonic stem cells line H1; assay: Definitive endoderm differentiation of H1 cells in FBS medium (GDF8/GSK3B inhibitor) with IGF or insulin: FACS and real-time PCR; type: cell-based; details: in the presence of FBS, 10-100 ng/ml, day 4
Protocol: Cells of the human embryonic stem cells line H1 (p40-p52) were seeded as single cells at a density of 100000 cells/cm^2 on MATRIGEL® (1:30 dilution) (BD Biosciences; Cat #356231)-coated dishes in MEF-CM (mouse embryonic fibroblast conditioned media) supplemented with 16 ng/ml of FGF2 (Catalog#100-18B, PeproTech, NJ) and 10 μM of Y27632 (Rock inhibitor, Catalogue#Y0503, Sigma, Mo.). 72 hrs post seeding, cultures were differentiated into definitive endoderm (DE) as follows: • a. with MCDB-131 (Catalogue#10372-019, Invitrogen, CA) medium supplemented with 0.2% FBS (Catalogue#SH30070.03, Hyclone, UT), 0.0025 g/ml sodium bicarbonate (Catalogue #S3187, Sigma, Mo.), 1× GlutaMax™ (Catalogue #35050-079, Invitrogen, Ca) and 100 ng/ml GDF8 (Catalogue#120-00, PeproTech, NJ) plus 2.5 μM of the GSK3B inhibitor 14-Prop-2-en-1-yl-3,5,7,14,17,23,27-heptaazatetracyclo[19.3.1.1˜2,6˜0.1˜8,12˜]heptacosa-1(25),2(27),3,5,8(26),9,11,21,23-nonaen-16-one for one day, then • b. MCDB-131 medium supplemented with FBS, sodium bicarbonate, Glutamax, and 100 ng/ml GDF8 for an additional three days.
0.5% FBS was used for day 2 and 2% FBS was used for days 3-4. Besides regular FBS, heat treated FBS (Catalogue#F4135, Sigma, Mo.) and charcoal stripped treated FBS (Catalogue#F6765, Sigma, Mo.) were also tested. Some of the FBS treated cultures were also treated with various concentrations of IGF (10-100 ng/ml) or insulin (10-100 ng/ml).
At day 4, samples were collected for analysis by FACS and real-time PCR.

ES cells = details: 25 ng/ml of IGF added to 2% FBS, MEF-CM, activin A; cited from earlier work
[2] = tested on: human embryonic stem cells line H1; assay: Definitive endoderm differentiation of H1 cells, single cell seeding (GDF8/GSK3B inhibitor, MCDB-131): FACS for CXCR4 and CD9; type: cell-based; details: for % CXCR4 + CD9− / % CXCR4 − CD9+ / % CXCR4 − CD9−: day 4
Protocol: Cells of the human embryonic stem cells line H1 (p40-p52) were seeded as single cells at a density of 100000 cells/cm^2 on MATRIGEL® (1:30 dilution) (BD Biosciences; Cat #356231)-coated dishes in MEF-CM (mouse embryonic fibroblast conditioned media) supplemented with 16 ng/ml of FGF2 (Catalog#100-18B, PeproTech, NJ) and 10 μM of Y27632 (Rock inhibitor, Catalogue#Y0503, Sigma, Mo.). 72 hrs post seeding, cultures were differentiated into definitive endoderm (DE) as follows: • a. […] MCDB-131 medium supplemented with 2% BSA, sodium bicarbonate, Glutamax, and 100 ng/ml GDF-8 for an additional three days. In some of the cultures, the cells were treated with the following concentrations of IGF (Catalogue#AF100, PeproTech, NJ): 0, 1, 10, 50, or 200 ng/ml. As a control, instead of BSA, 0.2% FBS (Catalogue#SH30070.03, Hyclone, UT) was used for day 1 of differentiation, and 2% FBS was used for days 2-4. Some of the FBS treated cultures were also treated with various concentrations of IGF. At day 4, samples were collected for FACS and gene expression analysis using real-time PCR.

[3] = tested on: human embryonic stem cells line H1; assay: Definitive endoderm differentiation of H1 cells, single cell seeding (GDF8/GSK3B inhibitor): real-time PCR gene expression; type: cell-based
Protocol: Cells of the human embryonic stem cells line H1 (p40-p52) were seeded as single cells at a density of 100000 cells/cm^2 on MATRIGEL® (1:30 dilution) (BD Biosciences; Cat #356231)-coated dishes in MEF-CM (mouse embryonic fibroblast conditioned media) supplemented with 16 ng/ml of FGF2 (Catalog#100-18B, PeproTech, NJ) and 10 μM of Y27632 (Rock inhibitor, Catalogue#Y0503, Sigma, Mo.). 72 hrs post seeding, cultures were differentiated into definitive endoderm (DE) as follows: • a. MCDB-131 (Catalogue#10372-019, Invitrogen, CA) medium supplemented with 2% fatty acid-free BSA (Catalog#68700, Proliant, IA), 0.0025 g/ml sodium bicarbonate (Catalogue #S3187, Sigma, Mo.), 1× GlutaMax™ (Catalogue #35050-079, Invitrogen, Ca) and 100 ng/ml GDF8 (Catalogue#120-00, PeproTech, NJ) plus 2.5 μM of the GSK3B inhibitor 14-Prop-2-en-1-yl-3,5,7,14,17,23,27-heptaazatetracyclo [19.3.1.1˜2,6˜0.1˜8,12˜]heptacosa-1(25),2(27),3,5,8(26),9,11,21,23-nonaen-16-one for one day, then • b. MCDB-131 medium supplemented with 2% BSA, sodium bicarbonate, Glutamax, and 100 ng/ml GDF-8 for an additional three days.
In some of the cultures, the cells were treated with the following concentrations of IGF (Catalogue#AF100, PeproTech, NJ): 0, 1, 10, 50, or 200 ng/ml. As a control, instead of BSA, 0.2% FBS (Catalogue#SH30070.03, Hyclone, UT) was used for day 1 of differentiation, and 2% FBS was used for days 2-4. Some of the FBS treated cultures were also treated with various concentrations of IGF.
At day 4, samples were collected for FACS and gene expression analysis using real-time PCR.
Cultures treated with medium supplemented with FBS were much more sensitive to the inhibitory effect of IGF. […] These observations was further supported by immuno fluorescence (IF) staining for the DE marker SOX17 (Catalogue #AF 1924, R & D systems, MN) (FIGS. 8-9).

[4] = IGF 50-200 ng/ml, BSA treated cultures

## IGF
[1]
  expression of the pluripotency marker NANOG: upregulated
  markers associated with definitive endoderm such as SOX17 and CCXR4: dose dependently down regulated
ES cells
  decrease of the expression of SOX17: approximately 70%
[2]; BSA + 1 ng/ml IGF
  % CXCR4 + CD9−: 92%
  % CXCR4 − CD9+: 0.8%
  % CXCR4 − CD9−: 3%
[2]; BSA + 10 ng/ml IGF
  % CXCR4 + CD9−: 90%
  % CXCR4 − CD9+: 1.3%
  % CXCR4 − CD9−: 5.3%
[2]; BSA + 50 ng/ml IGF
  % CXCR4 + CD9−: 87%
  % CXCR4 − CD9+: 6%
  % CXCR4 − CD9−: 3.5%
[2]; BSA + 200 ng/ml IGF
  % CXCR4 + CD9−: 79%
  % CXCR4 − CD9+: 10%
  % CXCR4 − CD9−: 8%
[2]; FBS + 1 ng/ml IGF
  % CXCR4 + CD9−: 89%
  % CXCR4 − CD9+: 3%
  % CXCR4 − CD9−: 3.6%
[2]; FBS + 10 ng/ml IGF
  % CXCR4 + CD9−: 87%
  % CXCR4 − CD9+: 6.4%
  % CXCR4 − CD9−: 3.3%
[2]; FBS + 50 ng/ml IGF
  % CXCR4 + CD9−: 78%
  % CXCR4 − CD9+: 6.8%
  % CXCR4 − CD9−: 13.2%
[2]; FBS + 200 ng/ml IGF
  % CXCR4 + CD9−: 70%
  % CXCR4 − CD9+: 13.4%
  % CXCR4 − CD9−: 12.9%
[2]; [4]
  CXCR4+CD9− cells: drop in expression
  CXCR4−CD9+ fraction: increase in expression
[2]; increasing doses of IGF, FBS treated versus BSA treated cultures
  CXCr4+CD9− fraction: more significant drop
[3]; 1-200 ng/ml of IGF, BSA treated cultures, versus no IGF
  expression of markers associated with definitive endoderm (FOXA2, SOX17, CER1, CXCR4): did not significantly affect
[3]; 50-200 ng/ml of IGF
  expression of the embryonic marker NANOG: did increase expression
[3]; FBS supplemented cultures, increasing IGF
  expression of SOX17, HNF3B and CXCR4: decreased with increasing concentration
